PMC3375340 (Journal of Medicinal Chemistry, 2012)
≈ marks a conversion by molar mass, not a printed value.

Key:
[1] = tested on: M. tuberculosis electron transport system; test: Oxygen consumption assay; format: cell-based; conditions: for electron transport system inhibition (conclusion): from oxygen consumption assay
[2] = target: M. tuberculosis MenA (Mycobacterium tuberculosis, UniProt P9WIP3); test: MenA enzyme inhibitory assay; format: biochemical; conditions: for IC50: MenA Inhibition IC50, Mtb MenA, dose-response of DMMK formation
M. tuberculosis MenA, sequence (P9WIP3 whole entry): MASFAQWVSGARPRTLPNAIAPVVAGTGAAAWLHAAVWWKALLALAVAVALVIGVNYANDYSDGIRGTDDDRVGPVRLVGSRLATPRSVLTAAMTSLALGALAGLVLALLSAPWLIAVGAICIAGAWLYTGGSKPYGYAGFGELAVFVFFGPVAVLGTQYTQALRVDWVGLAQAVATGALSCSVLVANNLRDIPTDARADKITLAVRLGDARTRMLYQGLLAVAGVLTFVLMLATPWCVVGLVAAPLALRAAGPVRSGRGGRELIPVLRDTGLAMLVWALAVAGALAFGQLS

[3] = tested on: M. bovis, M. intracellulare, and M. smegmatis; format: cell-based, Mycobacterium species
[4] = tested on: M. intracellulare ATCC15984; test: MIC, Mycobacterium species panel; format: cell-based
[5] = in vitro; conditions: monkey
[6] = tested on: M. bovis BCG; test: microbe, parasite or virus in culture; format: cell-based; conditions: Mycobacterium tuberculosis variant bovis BCG
[7] = tested on: M. tuberculosis H37Rv; test: Microplate alamar blue assay; format: cell-based; conditions: Mycobacterium tuberculosis, read-out: MIC against Mtb (MABA)
[8] = tested on: M. tuberculosis H37Rv; test: MIC, Mycobacterium species panel; format: cell-based

## CCCCCC[C@H](CN1CCC(COc2cccc(C(=O)c3ccc(Cl)cc3)c2)CC1)OC(N)=O [(R)-12, (R)-1-(4-((3-(4-chlorobenzoyl)phenoxy)methyl)piperidin-1-yl)octan-2-yl carbamate]
[1]
  electron transport system inhibition (conclusion): very weak (or are not) electron transport system inhibitors
[2]; Mtb MenA IC50 comparison
  fold better MenA enzyme inhibitory activity compared to the alcohol (R)-11: 6 fold
[3]
  killing concentration, other Mycobacterium species: 3.0~6.5 μg/mL

## CCCCCC[C@H](CN1CCC(COc2cccc(C(=NOC)c3ccc(Cl)cc3)c2)CC1)OC(N)=O [(R)-13, (R)-1-(4-((3-((4-Chlorophenyl)(methoxyimino)methyl)phenoxy)methyl)piperidin-1-yl)octan-2-yl carbamate]
[4]
  MIC: 6.5 µg/mL (≈ 12.3 µM)
[5]
  selectivity ratio: > 10
[6]
  MIC: 2.95 µg/mL (≈ 5.56 µM)
[2]
  IC50: 1.2 µM
[3]
  killing concentration, other Mycobacterium species: 3.0~6.5 μg/mL
[7]
  MIC: 2.31 µg/mL (≈ 4.36 µM)

## CCCCCCC[C@@H](O)c1cccc(CN2CCC(COc3cccc(C(=NOC)c4ccc(Cl)cc4)c3)CC2)c1 [(R)-15, (R)-(4-chlorophenyl)(3-((1-(3-(1-hydroxyoctyl)benzyl)piperidin-4-yl)methoxy)phenyl)methanone O-methyl oxime]
[2]
  IC50: 15 µM

## CCCCCC[C@H](CN1CCC(COc2ccc(C(=O)c3ccc(Cl)cc3)c(Cl)c2)CC1)OC(N)=O [(R)-17, (R)-1-(4-((3-chloro-4-(4-chlorobenzoyl)phenoxy)methyl)piperidin-1-yl)octan-2-yl carbamate]
[1]
  electron transport system inhibition (conclusion): very weak (or are not) electron transport system inhibitors

## CCCCCCC[C@@H](O)c1cccc(CN2CCC(COc3ccc(C(=NOC)c4ccc(Cl)cc4)c(Cl)c3)CC2)c1 [(R)-20, (R)-(2-Chloro-4-((1-(3-(1-hydroxyoctyl)benzyl)piperidin-4-yl)methoxy)phenyl)(4-chlorophenyl) methanone O-methyl oxime]
[2]
  IC50: 15 µM

## CCCCCCC[C@H](O)c1cccc(CN2CCC(COc3cccc(C(=O)c4ccc(Cl)cc4)c3)CC2)c1 [(S)-3, (S)-(4-chlorophenyl)(3-((1-(3-(1-hydroxyoctyl)benzyl)piperidin-4-yl)methoxy)phenyl) methanone]
[2]
  IC50: 20 µM

## CCCCCC[C@@H](CN1CCC(COc2ccc(C(=O)c3ccc(Cl)cc3)c(Cl)c2)CC1)OC(N)=O [(S)-17]
[1]; Mtb, 37 °C, 22h, above the MIC
  concentration showing decolorization of methylene blue: 12.5 µg/mL

## CCCCCCC[C@H](O)c1cccc(CN2CCC(COc3ccc(C(=NOC)c4ccc(Cl)cc4)c(Cl)c3)CC2)c1 [(S)-20, (S)-(2-Chloro-4-((1-(3-(1-hydroxyoctyl)benzyl)piperidin-4-yl)methoxy)phenyl)(4-chlorophenyl) methanone O-methyl oxime]
[2]
  IC50: 20 µM

## NNC(=O)c1ccncc1 [INH, isoniazid]
[8]
  MIC: 0.24 µg/mL (≈ 1.75 µM)
